The source of these data is ChEMBL document CHEMBL3351696, “Design of chemically stable, potent, and efficacious MDM2 inhibitors that exploit the retro-mannich ring-opening-cyclization reaction mechanism in spiro-oxindoles” (J Med Chem, 2014).

pIC50: −log10 of the molar value. Calls of active or inactive are those of the source. The rule behind the calls is not given here.

In data set [1] the test system is SJSA-1. Nature of the data set: cells. As to conditions: Homo sapiens.
Data set [2] can be described thus: physchem. The conditions noted are these: 1:1 CH3CN/H2O.
Data set [3] is described as follows: physchem. The conditions noted are these: 1:1 CH3CN/H2O. This is another data set of the same source.
Data set [4] in a line: physchem. As to conditions: 1:1 CH3CN/H2O. This is another data set of the same source.
The nature of data set [5]: physchem. The conditions noted are these: 1:1 CH3CN/H2O. This is another data set of the same source.
A short description of data set [6]: physchem. The conditions noted are these: 1:1 CH3CN/H2O solution.
The nature of data set [7]: physchem. As to conditions: 1:1 MeOH/H2O solution.
Data set [8] deals with SJSA-1. As to conditions: Homo sapiens, 200 mg/kg.
The nature of data set [9]: cells. As to conditions: Homo sapiens, HCT-116.
Data set [10] in a line: cells. As to conditions: Homo sapiens, HCT-116. The source holds these as a separate data set.

Take `CCC1(CC)N[C@@H](C(=O)NCCN2CCOCC2)[C@H](c2cccc(Cl)c2F)[C@]12C(=O)Nc1cc(Cl)ccc12`: the pIC50 (in general, −log10 of the IC50, conventionally taken in molar units) with SJSA-1 [1] was below 5.00.
As for `O=C(N[C@H]1CC[C@H](O)CC1)[C@@H]1NC2(CCCCCC2)[C@@]2(C(=O)Nc3cc(Cl)ccc32)[C@H]1c1cccc(Cl)c1F`, the negative logarithm of the IC50 (pIC50) in the data set with SJSA-1 [1] was 5.68.
`C[C@]1(O)C[C@@H](NC(=O)[C@@H]2NC3(CCC3)[C@]3(C(=O)Nc4cc(Cl)ccc43)[C@H]2c2cccc(Cl)c2F)C1`: the pIC50 in the data set with SJSA-1 [1] is 5.84.
`O=C(NCC[C@H](O)CO)[C@@H]1NC2(CCC2)[C@]2(C(=O)Nc3cc(Cl)ccc32)[C@H]1c1cccc(Cl)c1F` had a pIC50 with SJSA-1 [1] of 5.78.
Consider `CCC1(CC)N[C@@H](C(=O)NCC[C@H](O)CO)[C@H](c2cccc(Cl)c2F)[C@]12C(=O)Nc1cc(Cl)ccc12`, for which, in the data set on SJSA-1 [1], the pIC50 is below 5.00.
With `CC(C)(C)C[C@@H]1N[C@@H](C(=O)N[C@H]2C[C@@](C)(O)C2)[C@H](c2cccc(Cl)c2F)[C@]12C(=O)Nc1cc(Cl)ccc12`, the share remaining (commonly what is left of the initial amount, in per cent) at 0 h in “physchem [2]” came out at 100%. The molecule further yielded a share remaining at 24 h in the data set “physchem [3]” of 99.6%. This molecule also registered an amount remaining at 72 h in “physchem [4]” of 98.6%. This molecule also displayed an amount remaining at 144 h in “physchem [5]” of 97.7%. Also, the degraded at 168 h in “physchem [6]” and in the data set “physchem [7]” was 2% each time.
As to `O=C(NCC[C@H](O)CO)[C@@H]1NC2(CCC2)[C@@]2(C(=O)Nc3cc(Cl)ccc32)[C@H]1c1cccc(Cl)c1F`, the negative logarithm of the IC50 (pIC50) with SJSA-1 [1] is 5.68.
Regarding `CCCC1(CCC)N[C@@H](C(=O)N[C@H]2CC[C@H](O)CC2)[C@H](c2cccc(Cl)c2F)[C@]12C(=O)Nc1cc(Cl)ccc12`, in the data set with SJSA-1 [1], the pIC50 is 5.16.
As for `O=C(NCCN1CCOCC1)[C@@H]1NC2(CCCCC2)[C@@]2(C(=O)Nc3cc(Cl)ccc32)[C@H]1c1cccc(Cl)c1F`, the negative logarithm of the IC50 (pIC50) in the data set with SJSA-1 [1] was 6.52. In “physchem [2]”, this molecule registered a fraction remaining at 0 h of 100%. The molecule further showed a share remaining at 24 h in “physchem [3]” of 100%. The same molecule displayed an amount remaining at 72 h in the data set “physchem [4]” of 99.6%. This molecule also returned an amount remaining at 144 h in “physchem [5]” of 99.2%.
As to `O=C(N[C@H]1CC[C@H](O)CC1)[C@@H]1NC2(CCC2)[C@]2(C(=O)Nc3cc(Cl)ccc32)[C@H]1c1cccc(Cl)c1F`, the pIC50 with SJSA-1 [1] is 5.70.
On the same count and under the same terms, for `CC1(C)N[C@@H](C(=O)N[C@H]2CC[C@H](O)CC2)[C@H](c2cccc(Cl)c2F)[C@]12C(=O)Nc1cc(Cl)ccc12` the value was 5.54.
With `O=C(N[C@H]1CC[C@H](O)CC1)[C@@H]1NC2(CCCCC2)[C@@]2(C(=O)Nc3cc(Cl)ccc32)[C@H]1c1cccc(Cl)c1F`, in the data set with SJSA-1 [8], the TGI result was “Active”. Moreover, the pIC50 in the data set with SJSA-1 [1] is 6.72; in “cells [9]” it was 6.49; in the data set “cells [10]” it was below 5.00.
In the data set with SJSA-1 [1], `O=C(N[C@H]1CC[C@H](O)CC1)[C@@H]1NC2(CCC2)[C@@]2(C(=O)Nc3cc(Cl)ccc32)[C@H]1c1cccc(Cl)c1F` had a pIC50 of 5.80.
For the molecule `CCC1(CC)N[C@@H](C(=O)N[C@H]2C[C@@](C)(O)C2)[C@H](c2cccc(Cl)c2F)[C@]12C(=O)Nc1cc(Cl)ccc12`, the pIC50 with SJSA-1 [1] was below 5.00.
On to `O=C(NCC[C@H](O)CO)[C@@H]1NC2(CCCCC2)[C@@]2(C(=O)Nc3cc(Cl)ccc32)[C@H]1c1cccc(Cl)c1F`, for which, in the data set with SJSA-1 [1], the pIC50 was 6.70. In addition, the amount remaining at 0 h in the data set “physchem [2]” worked out at 100%. This molecule had an amount remaining at 24 h in the data set “physchem [3]” of 100%. The molecule further showed an amount remaining at 72 h in the data set “physchem [4]” of 100%. The molecule also gave a fraction remaining at 144 h in the data set “physchem [5]” of 100%.
In the data set with SJSA-1 [1], `O=C(NCCN1CCOCC1)[C@@H]1NC2(CCC2)[C@@]2(C(=O)Nc3cc(Cl)ccc32)[C@H]1c1cccc(Cl)c1F` showed a negative-log IC50 (pIC50) of 5.64.
With `CC(C)(C)C[C@@H]1N[C@@H](C(=O)NCCN2CCOCC2)[C@H](c2cccc(Cl)c2F)[C@]12C(=O)Nc1cc(Cl)ccc12`, the share remaining at 0 h in “physchem [2]” worked out at 98.1%. Also, the share remaining at 24 h in the data set “physchem [3]” was 90.8%. In “physchem [4]”, this molecule displayed a fraction remaining at 72 h of 86.9%. In “physchem [5]”, this molecule returned an amount remaining at 144 h of 82.7%.
For the molecule `C[C@]1(O)C[C@@H](NC(=O)[C@@H]2NC3(CCC3)[C@@]3(C(=O)Nc4cc(Cl)ccc43)[C@H]2c2cccc(Cl)c2F)C1`, in the data set with SJSA-1 [1], the negative-log IC50 (pIC50) was 5.77.
For the molecule `C[C@]1(O)C[C@@H](NC(=O)[C@@H]2NC3(CCCCC3)[C@@]3(C(=O)Nc4cc(Cl)ccc43)[C@H]2c2cccc(Cl)c2F)C1`, the pIC50 in the data set on SJSA-1 [1] was 6.80. The same molecule showed a fraction remaining at 0 h in the data set “physchem [2]” of 100%. For the same molecule, the share remaining at 24 h in “physchem [3]” came to 100%. The amount remaining at 72 h in “physchem [4]” was 100%. In the data set “physchem [5]”, the amount remaining at 144 h was determined as 100%.
As for `O=C(N[C@H]1CC[C@H](O)CC1)[C@@H]1NC2(CCCC2)[C@@]2(C(=O)Nc3cc(Cl)ccc32)[C@H]1c1cccc(Cl)c1F`, the negative logarithm of the IC50 (pIC50) in the data set on SJSA-1 [1] is 6.19.
Molecule `O=C(NCCN1CCOCC1)[C@@H]1NC2(CCC2)[C@]2(C(=O)Nc3cc(Cl)ccc32)[C@H]1c1cccc(Cl)c1F` had a negative-log IC50 (pIC50) in the data set on SJSA-1 [1] of 5.78.
`CC(C)(C)C[C@@H]1N[C@@H](C(=O)NCC[C@H](O)CO)[C@H](c2cccc(Cl)c2F)[C@]12C(=O)Nc1cc(Cl)ccc12` came in with a share remaining at 0 h in the data set “physchem [2]” of 97.5%. In “physchem [3]”, this molecule gave a share remaining at 24 h of 95.8%. This molecule also returned a fraction remaining at 72 h in “physchem [4]” of 95.7%. The molecule also displayed an amount remaining at 144 h in “physchem [5]” of 91.4%.
`CCC1(CC)N[C@@H](C(=O)N[C@H]2CC[C@H](O)CC2)[C@H](c2cccc(Cl)c2F)[C@]12C(=O)Nc1cc(Cl)ccc12` showed a negative-log IC50 (pIC50) with SJSA-1 [1] of 5.27.
`O=C(O)c1ccc(NC(=O)[C@@H]2NC3(CCCCC3)[C@@]3(C(=O)Nc4cc(Cl)ccc43)[C@H]2c2cccc(Cl)c2F)cc1`: the negative logarithm of the IC50 (pIC50) in the data set on SJSA-1 [1] was 7.00; in the data set “cells [9]” it was 6.60; in the data set “cells [10]”, below 5.00.
